In the NIST ThermoML archive (doi:10.1016/j.jct.2013.09.032):
Numbers after ± are expanded uncertainties.

Experiments:
[1] = for mass density / viscosity: 101.33 kPa, Liquid; for mass density: Vibrating tube method; for viscosity: Falling or rolling sphere viscometry
[2] = refractive index (Na D-line) (dimensionless); conditions: 101.33 kPa, Liquid, Standard Abbe refractometry

CCCC[n+]1cccc(C#N)c1.O=S(=O)([N-]S(=O)(=O)C(F)(F)F)C(F)(F)F [1-butyl-3-cyanopyridinium bis(trifluoromethylsulfonyl)imide]
mass density ([1]; 298.15 K): 1479.79 ± 2.1 kg/m3

CCCC[n+]1ccc(C#N)cc1.O=S(=O)([N-]S(=O)(=O)C(F)(F)F)C(F)(F)F [1-butyl-4-cyanopyridinium bis(trifluoromethylsulfonyl)imide]
mass density ([1]; 278.15 K): 1492.99 ± 2.1 kg/m3 | mass density ([1]; 288.15 K): 1483.58 ± 2.1 kg/m3 | mass density ([1]; 298.15 K): 1474.23 ± 2.1 kg/m3 | viscosity ([1]; 308.15 K): 250.45 ± 14 mPa·s | mass density ([1]; 308.15 K): 1465.05 ± 2 kg/m3 | viscosity ([1]; 318.15 K): 138.28 ± 5.4 mPa·s | mass density ([1]; 318.15 K): 1455.88 ± 2 kg/m3 | viscosity ([1]; 328.15 K): 83.59 ± 2.3 mPa·s | mass density ([1]; 328.15 K): 1446.76 ± 2 kg/m3 | viscosity ([1]; 338.15 K): 54.47 ± 1.2 mPa·s | mass density ([1]; 338.15 K): 1437.73 ± 2 kg/m3 | viscosity ([1]; 348.15 K): 37.59 ± 0.89 mPa·s | mass density ([1]; 348.15 K): 1428.78 ± 2 kg/m3 | viscosity ([1]; 358.15 K): 27.24 ± 0.65 mPa·s | mass density ([1]; 358.15 K): 1419.9 ± 1.9 kg/m3 | Glass transition temperature ([1]; Glass, DTA): -54 ± 3.8 °C

c1ccsc1 [thiophene]
mass density ([1]; 298.15 K): 1058.64 ± 1 kg/m3 | refractive index ([2]; 298.15 K): 1.52527 ± 0.0007

CCCO [propan-1-ol]
mass density ([1]; 298.15 K): 799.52 ± 1 kg/m3 | refractive index ([2]; 298.15 K): 1.38375 ± 0.00068

CCCCCCC [heptane]
mass density ([1]; 298.15 K): 679.48 ± 1 kg/m3 | refractive index ([2]; 298.15 K): 1.38519 ± 0.00068

c1ccc2sccc2c1 [benzo[b]thiophene]
mass density ([1]; 308.15 K): 1150.55 ± 1.1 kg/m3 | mass density ([1]; 310.15 K): 1149.31 ± 1.1 kg/m3 | mass density ([1]; 313.15 K): 1146.05 ± 1.1 kg/m3 | mass density ([1]; 318.15 K): 1141.56 ± 1.1 kg/m3 | mass density ([1]; 323.15 K): 1137.07 ± 1.1 kg/m3 | mass density ([1]; 328.15 K): 1132.58 ± 1.1 kg/m3 | mass density ([1]; 333.15 K): 1128.08 ± 1.1 kg/m3 | mass density ([1]; 338.15 K): 1123.59 ± 1 kg/m3 | mass density ([1]; 343.15 K): 1119.1 ± 1 kg/m3 | mass density ([1]; 348.15 K): 1114.61 ± 1 kg/m3 | mass density ([1]; 353.15 K): 1110.11 ± 1 kg/m3 | mass density ([1]; 358.15 K): 1105.61 ± 1 kg/m3 | mass density ([1]; 363.15 K): 1101.11 ± 1 kg/m3 | refractive index ([2]; 310.15 K): 1.638 ± 0.0007

CCCCCC[n+]1ccc(C#N)cc1.O=S(=O)([N-]S(=O)(=O)C(F)(F)F)C(F)(F)F [1-hexyl-4-cyanopyridinium bis(trifluoromethylsulfonyl)imide]
mass density ([1]; 298.15 K): 1407 ± 1.9 kg/m3

CC(C)=O [acetone]
mass density ([1]; 298.15 K): 785.23 ± 1 kg/m3 | refractive index ([2]; 298.15 K): 1.356 ± 0.0007
